Laboratory results as given in article PMC6272317, “Design, Synthesis and Antitubercular Activity of Certain Nicotinic Acid Hydrazides” (Molecules, 2015).
Values after ≈ are worked out from the molar mass of the structure shown. Like-named read-outs stand apart in the source and are kept apart here.

Tests used:
[1] = test system: M. tuberculosis (RCMB 010126); test: microplate Alamar blue assay (MABA), in vitro antimycobacterial activity; assay type: cell-based, Mycobacterium tuberculosis; conditions: for Mean of Inhibition %: test concentration not stated; for MIC: visual MIC
[2] = test system: MCF-7 breast cancer cell line; design: method as in PMID 25499988; conditions: previous study ref 40, cited from earlier work; for IC50: MCF-7, 72 h; for cytotoxicity (in words): MCF-7
[3] = test system: PC-3 prostate cancer cell line; test: SRB cytotoxicity assay, PC-3; conditions: for IC50: 72 h; for cytotoxicity (in words): PC-3
[4] = test system: HT-29 colon cancer cell line; test: SRB cytotoxicity assay, HT-29; conditions: for IC50: Homo sapiens, HT-29, 72 h; for cytotoxicity (in words): HT-29
[5] = test system: HepG-2 liver cancer cell line; design: method as in PMID 25499988; conditions: previous study ref 40, cited from earlier work; for IC50: HepG2, 72 h; for cytotoxicity (in words): HepG2
[6] = test system: A-549 human lung cancer cell line; design: method as in PMID 25499988; conditions: previous study ref 40, cited from earlier work; for IC50: A549, 72 h; for cytotoxicity (in words): A549
[7] = M. tuberculosis RCMB 010126, MABA
[8] = Mycobacterium tuberculosis, RCMB010126, M. tuberculosis RCMB 010126, MABA, read-out: MIC

| SMILES | Mean of Inhibition % [1, 7] | MIC [1, 8] [µg/mL] | melting point [°C] | further results |
| --- | --- | --- | --- | --- |
| Cc1nc(-c2ccccc2)ccc1C(=O)NN [Compound 4a] | 42.52 ± 0.63% | 25 (≈ 110 µM) |  |  |
| Cc1ccc(-c2ccc(C(=O)NN)c(C)n2)cc1 [Compound 4b] | 36.33 ± 0.58% | 25 (≈ 104 µM) |  |  |
| Cc1nc(-c2ccc(F)cc2)ccc1C(=O)NN [Compound 4c, 6-(4-fluorophenyl)-2-methylnicotinohydrazide] | NA (No Activity (>100 µg/mL)) | > 100 |  | antimycobacterial activity (in words) ([1]; M. tuberculosis, MABA): complete loss of activity |
| Cc1nc(-c2ccc(Cl)cc2)ccc1C(=O)NN [Compound 4d] | 12.45 ± 0.58% | 50 (≈ 191 µM) |  | MIC [1, 7]: 100 µg/mL (≈ 382 µM) |
| Cc1nc(-c2ccc(Br)cc2)ccc1C(=O)NN [Compound 4e, 6-(4-Bromophenyl)-2-methylnicotinohydrazide] | 20.63 ± 0.63% | 100 (≈ 327 µM) | 213 to 215 | MIC [1, 7]: 50 µg/mL (≈ 163 µM) |
| COc1ccc(-c2ccc(C(=O)NN)c(C)n2)cc1 [Compound 4f, 6-(4-Methoxyphenyl)-2-methylnicotinohydrazide] | 42.63 ± 0.16% | 25 (≈ 97.2 µM) |  |  |
| COc1ccc(-c2ccc(C(=O)NN)c(C)n2)cc1OC [Compound 4g, 6-(3,4-Dimethoxyphenyl)-2-methylnicotinohydrazide] | 22.63 ± 0.16% | 50 (≈ 174 µM) | 204 to 205 |  |
| COc1cc(-c2ccc(C(=O)NN)c(C)n2)cc(OC)c1OC [Compound 4h, 2-Methyl-6-(3,4,5-trimethoxyphenyl)nicotinohydrazide] | 18.32 ± 0.72% | 50 (≈ 158 µM) |  |  |
| Cc1nc(-c2cccs2)ccc1C(=O)NN [Compound 4i] | 22.63 ± 0.20% | 50 (≈ 214 µM) |  |  |
| Cc1nc(-c2ccc(Br)cc2)ccc1C(=O)NN=Cc1ccccc1 [Compound 7a, N′-Benzylidene-6-(4-bromophenyl)-2-methylnicotinohydrazide] | NA (No Activity (>100 µg/mL)) | > 100 | 270 to 272 |  |
| Cc1nc(-c2ccc(Br)cc2)ccc1C(=O)NN=Cc1ccc(F)cc1 [Compound 7b, 6-(4-Bromophenyl)-N'-(4-fluorobenzylidene)-2-methylnicotinohydrazide] | NA (No Activity (>100 µg/mL)) | > 100 | 252 to 254 |  |
| Cc1nc(-c2ccc(Br)cc2)ccc1C(=O)NN=Cc1ccc(Cl)cc1 [Compound 7c, 6-(4-Bromophenyl)-N'-(4-chlorobenzylidene)-2-methylnicotinohydrazide] | NA (No Activity (>100 µg/mL)) | > 100 | 265 to 267 |  |
| Cc1nc(-c2ccc(Br)cc2)ccc1C(=O)NN=Cc1ccc(Cl)cc1Cl [Compound 7d, 6-(4-Bromophenyl)-N'-(2,4-dichlorobenzylidene)-2-methylnicotinohydrazide] | 13.57 ± 0.72% | 100 (≈ 216 µM) | 269 to 271 |  |
| COc1ccc(C=NNC(=O)c2ccc(-c3ccc(Br)cc3)nc2C)cc1 [Compound 7e, 6-(4-Bromophenyl)-N'-(4-methoxybenzylidene)-2-methylnicotinohydrazide] | NA (No Activity (>100 µg/mL)) | > 100 | 251 to 253 |  |
| Cc1nc(-c2ccc(Br)cc2)ccc1C(=O)NN=Cc1ccc2ccccc2c1 [Compound 7f, 6-(4-Bromophenyl)-2-methyl-N'-(naphthalen-2-ylmethylene)nicotinohydrazide] | 14.32 ± 0.58% | 100 (≈ 225 µM) | 273 to 275 |  |
| Cc1nc(-c2ccc(F)cc2)ccc1C(=O)N/N=C1\C(=O)Nc2ccccc21 [Compound 8a] | 31.44 ± 0.58% | 25 (≈ 66.8 µM) |  | IC50 [2]: > 200 µM; IC50 [3]: > 200 µM; IC50 [4]: > 200 µM; IC50 [5]: > 200 µM; IC50 [6]: > 200 µM |
| Cc1nc(-c2ccc(F)cc2)ccc1C(=O)N/N=C1\C(=O)Nc2ccc(Cl)cc21 [Compound 8b] | 52.63 ± 0.58% | 12.5 (≈ 30.6 µM) |  | IC50 [2]: > 200 µM; cytotoxicity (in words) [2]: devoid of apparent cytotoxicity; IC50 [3]: > 200 µM; cytotoxicity (in words) [3]: devoid of apparent cytotoxicity; MIC [1, 7]: 12.5 µg/mL (≈ 30.6 µM); cytotoxicity (in words) [4]: devoid of apparent cytotoxicity; IC50 [4]: > 200 µM; IC50 [5]: > 200 µM; cytotoxicity (in words) [5]: devoid of apparent cytotoxicity; IC50 [6]: > 200 µM; cytotoxicity (in words) [6]: devoid of apparent cytotoxicity |
| Cc1nc(-c2ccc(F)cc2)ccc1C(=O)N/N=C1\C(=O)Nc2ccc(Br)cc21 [Compound 8c] | 77.42 ± 0.93% | 6.25 (≈ 13.8 µM) |  | IC50 [2]: > 200 µM; cytotoxicity (in words) [2]: devoid of apparent cytotoxicity; IC50 [3]: > 200 µM; cytotoxicity (in words) [3]: devoid of apparent cytotoxicity; cytotoxicity (in words) [4]: devoid of apparent cytotoxicity; IC50 [4]: > 200 µM; IC50 [5]: > 200 µM; cytotoxicity (in words) [5]: devoid of apparent cytotoxicity; IC50 [6]: > 200 µM; cytotoxicity (in words) [6]: devoid of apparent cytotoxicity |
| COc1cccc2c1C(=O)c1c(O)c3c(c(O)c1C2=O)C[C@@](O)(C(=O)CO)C[C@@H]3O[C@H]1C[C@H](N)[C@H](O)[C@H](C)O1 [Doxorubicin, reference compound] |  |  |  | IC50 [2]: 6.1 ± 1.95 µM; IC50 [3]: 6.5 ± 1.07 µM; IC50 [4]: 7.3 ± 1.11 µM; IC50 [5]: 6.9 ± 2.05 µM; IC50 [6]: 7.6 ± 1.37 µM |
| NNC(=O)c1ccncc1 [Isoniazide, Isoniazid, reference compound] |  | 0.75 (≈ 5.47 µM) |  |  |
| NC(=O)c1cnccn1 [Pyrazinamid, pyrazinamide, reference compound] | 93.25 ± 0.63% | 3.21 (≈ 26.1 µM) |  |  |
